Assay results published in the supplement of paper PMC12494721.
Counter-ions that a name gives are not always drawn.

What was measured:
Details in all cases: incubation time: 27 h, anaerobic, 37 °C
[1] = tested on: Escherichia coli IAI1; test: fold change of Cadaverine concentration vs plate DMSO controls (fold change (ratio)); higher = more amine produced
[2] = tested on: Escherichia coli IAI1; test: growth (OD595) fold change vs plate DMSO controls (fold change (ratio)); higher = more growth
[3] = tested on: Escherichia coli IAI1; test: fold change of Putrescine concentration vs plate DMSO controls (fold change (ratio)); higher = more amine produced
[4] = tested on: Clostridium sporogenes DSM 1664; test: fold change of Tryptamine concentration vs plate DMSO controls (fold change (ratio)); higher = more amine produced
[5] = tested on: Clostridium sporogenes DSM 1664; test: growth (OD595) fold change vs plate DMSO controls (fold change (ratio)); higher = more growth
[6] = tested on: Ruminococcus gnavus DSM 108212; test: fold change of Tryptamine concentration vs plate DMSO controls (fold change (ratio)); higher = more amine produced
[7] = tested on: Ruminococcus gnavus DSM 108212; test: growth (OD595) fold change vs plate DMSO controls (fold change (ratio)); higher = more growth
[8] = tested on: Ruminococcus gnavus DSM 108212; test: fold change of 2-Phenylethylamine concentration vs plate DMSO controls (fold change (ratio)); higher = more amine produced

C=CC1=C(C(=O)O)N2C(=O)[C@@H](NC(=O)/C(=N\O)c3csc(N)n3)[C@H]2SC1 [Cefdinir]
Details	fold change of Cadaverine concentration, [1]	fold change of Putrescine concentration, [3]	growth, [2]
0.6125 µM	1.1	0.759	0.899
1.25 µM	1.18	0.836	0.905
2.5 µM	1.98	1.47	0.0538
5 µM	0.812	0.282	-0.042
10 µM	0.533	0.152	-0.0507
20 µM	1.17	0.342	-0.0475

C=CC1=C(C(=O)O)N2C(=O)[C@@H](NC(=O)/C(=N\OCC(=O)O)c3csc(N)n3)[C@H]2SC1 [Cefixime]
Details	fold change of Cadaverine concentration, [1]	fold change of Putrescine concentration, [3]	fold change of Tryptamine concentration, [4]	growth, [2]	growth, [5]
0.6125 µM	1.07	0.815	0.977	0.848	1.05
1.25 µM	1.07	0.897	0.994	0.903	1.02
2.5 µM	1.72	0.839	0.974	0.859	0.842
5 µM	2.01	2.82	0.937	0.193	0.82
10 µM	2.2	1.37	0.925	0.0344	0.675
20 µM	2.17	1.16	0.887	-0.00514	0.527

CCN1CCN(C(=O)N[C@@H](C(=O)N[C@@H]2C(=O)N3C(C(=O)O)=C(CSc4nnnn4C)CS[C@H]23)c2ccc(O)cc2)C(=O)C1=O [Cefoperazone dihydrate]
Details	fold change of 2-Phenylethylamine concentration, [8]	fold change of Cadaverine concentration, [1]	fold change of Putrescine concentration, [3]	fold change of Tryptamine concentration, [6]	growth, [2]	growth, [7]
0.6125 µM	0.866	1.07	0.765	1.01	0.9	1.55
1.25 µM	0.808	1.12	0.851	0.955	0.914	1.15
2.5 µM	0.387	1.82	3.2	0.568	0.514	0.937
5 µM	0.153	2.14	1.77	0.22	0.0751	0.627
10 µM	0.105	2.27	1.11	0.14	0.0151	0.478
20 µM	0.0986	2.17	1.04	0.124	-0.0235	0.345

CO/N=C(\C(=O)N[C@@H]1C(=O)N2C(C(=O)[O-])=C(C[n+]3ccn4ncccc43)CS[C@H]12)c1nsc(N)n1 [Cefozopran hydrochloride]
Details	fold change of 2-Phenylethylamine concentration, [8]	fold change of Cadaverine concentration, [1]	fold change of Putrescine concentration, [3]	fold change of Tryptamine concentration, [6]	growth, [2]	growth, [7]
0.6125 µM	0.623	0.986	0.772	0.714	0.818	1.24
1.25 µM	0.361	0.959	0.919	0.52	0.863	0.965
2.5 µM	0.162	0.929	0.717	0.275	1.06	1.03
5 µM	0.105	0.962	0.793	0.16	1.12	1.06
10 µM	0.101	1.38	1.12	0.148	1.15	1.24
20 µM	0.0948	2.16	2.17	0.135	0.238	0.529

CO/N=C(\C(=O)N[C@@H]1C(=O)N2C(C(=O)O)=C(COC(N)=O)CS[C@H]12)c1ccco1 [Cefuroxime sodium salt]
Details	fold change of Cadaverine concentration, [1]	fold change of Putrescine concentration, [3]	fold change of Tryptamine concentration, [4]	growth, [2]	growth, [5]
0.6125 µM	1.11	0.907	1.01	0.872	0.8
1.25 µM	1.13	0.853	1.01	0.929	0.69
2.5 µM	1.09	0.758	1.04	1.03	0.755
5 µM	2.02	1.11	0.764	0.923	0.214
10 µM	2.06	2.59	0.0406	0.171	-0.0277
20 µM	2.13	1.24	0.0242	0.0264	-0.0443
